Test results taken from paper PMC3669347, “A Multi-System Approach Assessing the Interaction of Anticonvulsants with P-gp” (PLoS ONE, 2013).
Read-outs that look alike come from different tables or passages of the source. Each block holds one compound with its values, some of them ahead of it.

Assays:
[1] = biological target: T1, P-gp (Homo sapiens, UniProt P08183); parameters: induced multi-drug resistance through over-expression of P-gp; endogenous in cells; host or cells: CEM (low P-gp) and VBL100 (vinblastine-selected, high P-gp) cells; settings: cited from earlier work
T1 sequence (P08183 whole entry): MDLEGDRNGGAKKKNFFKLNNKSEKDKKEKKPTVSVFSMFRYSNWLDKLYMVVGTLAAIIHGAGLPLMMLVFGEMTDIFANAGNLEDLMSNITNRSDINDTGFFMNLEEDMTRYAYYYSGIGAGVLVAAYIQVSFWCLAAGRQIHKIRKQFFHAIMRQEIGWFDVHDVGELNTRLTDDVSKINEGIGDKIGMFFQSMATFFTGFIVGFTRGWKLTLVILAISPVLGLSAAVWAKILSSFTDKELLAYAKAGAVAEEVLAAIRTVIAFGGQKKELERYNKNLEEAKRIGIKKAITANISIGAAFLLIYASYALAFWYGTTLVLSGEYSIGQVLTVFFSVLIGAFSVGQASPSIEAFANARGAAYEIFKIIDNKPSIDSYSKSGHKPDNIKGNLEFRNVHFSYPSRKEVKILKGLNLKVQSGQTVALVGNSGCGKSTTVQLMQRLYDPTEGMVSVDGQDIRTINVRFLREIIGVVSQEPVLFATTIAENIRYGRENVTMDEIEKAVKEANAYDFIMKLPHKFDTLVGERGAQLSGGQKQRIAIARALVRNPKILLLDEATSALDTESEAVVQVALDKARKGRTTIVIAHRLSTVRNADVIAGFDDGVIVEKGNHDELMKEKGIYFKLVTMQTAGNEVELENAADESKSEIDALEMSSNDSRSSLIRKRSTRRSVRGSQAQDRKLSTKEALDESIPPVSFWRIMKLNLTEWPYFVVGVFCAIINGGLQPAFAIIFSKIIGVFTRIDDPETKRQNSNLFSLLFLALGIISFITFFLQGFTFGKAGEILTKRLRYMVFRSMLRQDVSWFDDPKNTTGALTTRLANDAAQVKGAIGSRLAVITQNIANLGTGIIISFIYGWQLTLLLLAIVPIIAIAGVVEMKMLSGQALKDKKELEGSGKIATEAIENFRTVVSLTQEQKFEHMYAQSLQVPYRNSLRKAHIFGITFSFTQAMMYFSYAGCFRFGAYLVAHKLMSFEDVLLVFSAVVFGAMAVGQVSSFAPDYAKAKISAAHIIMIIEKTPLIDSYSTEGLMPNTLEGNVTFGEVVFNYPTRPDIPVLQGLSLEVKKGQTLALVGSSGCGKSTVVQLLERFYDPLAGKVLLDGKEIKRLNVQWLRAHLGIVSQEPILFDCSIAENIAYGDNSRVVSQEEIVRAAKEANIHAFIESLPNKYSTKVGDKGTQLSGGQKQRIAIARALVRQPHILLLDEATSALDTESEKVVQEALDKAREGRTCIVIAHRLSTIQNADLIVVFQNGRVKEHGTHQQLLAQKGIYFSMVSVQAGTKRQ

[2] = system: P-gp; settings: cited from earlier work; for Brain accumulation affected by rodent P-gp: MDR1 knockout mice; for Substrate of P-gp (published evidence): MDR1 KO Mouse
[3] = system: human P-gp; settings: cited from earlier work; for Substrate of P-gp (published evidence): Transfected human P-gp cell lines, equilibrium
[4] = biological target: T1, P-gp; experiment: Cellular accumulation assay in CEM and VBL100 cells; settings: for Accumulation in VBL100 cells compared with CEM cells / Effect of tariquidar on accumulation in VBL100 cells: 5µM drug, 30 minutes; for Effect of tariquidar on accumulation in VBL100 cells: 300nM tariquidar; for Interaction with P-gp observed: CEM/VBL cells
[5] = biological target: T1, P-gp; experiment: Concentration equilibrium transport assay in Caco-2 cells; settings: for Polarised transport in Caco-2 concentration equilibrium assay: 5µM drug, 4 hour time course, ±300nM tariquidar; for Interaction with P-gp observed: Caco-2 (equilibrium method)
[6] = biological target: T1, P-gp; experiment: Concentration equilibrium transport assay in MDCKII±P-gp cells; settings: for Transport into the apical compartment, MDCKII-P-gp vs parental MDCKII cells: 5µM drug, 6 hour time course, ±300nM tariquidar; for Interaction with P-gp observed: MDCK±P-gp (equilibrium method)
[7] = biological target: T1, P-gp; experiment: Concentration equilibrium transport assay in LLC-PK1±P-gp cells; settings: for Transport into the apical compartment, LLC-PK1-P-gp vs parental LLC-PK1 cells: 5µM drug, 6 hour time course, ±300nM tariquidar; for Interaction with P-gp observed: LLC-PK1±P-gp (equilibrium method)
[8] = biological target: T1, P-gp; experiment: X. laevis oocyte P-gp drug transport assay (efflux and accumulation); settings: for Efflux from P-gp injected oocytes vs water-injected oocytes: intra-oocyte 1µM digoxin or 5µM phenytoin, 45 minutes; for Efflux from P-gp injected oocytes vs water-injected oocytes / Accumulation in oocytes expressing human P-gp vs water-injected oocytes: 22°C; for Accumulation in oocytes expressing human P-gp vs water-injected oocytes: 20µM drug ±40µM PSC833, 1 hour; for Interaction with P-gp observed: Xenopus laevis oocytes expressing human P-gp
[9] = biological target: T2, P-gp (Sus scrofa, UniProt K7GMM7); experiment: Permeability assay in primary porcine brain endothelial cells (PBECs); assay type: in vitro ADME; settings: for Effect of verapamil or tariquidar treatment on apical to basolateral Papp: 6µM drug, 1 hour, 100µM verapamil, 300nM tariquidar; for Interaction with P-gp observed: Primary porcine brain endothelial
T2 sequence (K7GMM7 1-1248): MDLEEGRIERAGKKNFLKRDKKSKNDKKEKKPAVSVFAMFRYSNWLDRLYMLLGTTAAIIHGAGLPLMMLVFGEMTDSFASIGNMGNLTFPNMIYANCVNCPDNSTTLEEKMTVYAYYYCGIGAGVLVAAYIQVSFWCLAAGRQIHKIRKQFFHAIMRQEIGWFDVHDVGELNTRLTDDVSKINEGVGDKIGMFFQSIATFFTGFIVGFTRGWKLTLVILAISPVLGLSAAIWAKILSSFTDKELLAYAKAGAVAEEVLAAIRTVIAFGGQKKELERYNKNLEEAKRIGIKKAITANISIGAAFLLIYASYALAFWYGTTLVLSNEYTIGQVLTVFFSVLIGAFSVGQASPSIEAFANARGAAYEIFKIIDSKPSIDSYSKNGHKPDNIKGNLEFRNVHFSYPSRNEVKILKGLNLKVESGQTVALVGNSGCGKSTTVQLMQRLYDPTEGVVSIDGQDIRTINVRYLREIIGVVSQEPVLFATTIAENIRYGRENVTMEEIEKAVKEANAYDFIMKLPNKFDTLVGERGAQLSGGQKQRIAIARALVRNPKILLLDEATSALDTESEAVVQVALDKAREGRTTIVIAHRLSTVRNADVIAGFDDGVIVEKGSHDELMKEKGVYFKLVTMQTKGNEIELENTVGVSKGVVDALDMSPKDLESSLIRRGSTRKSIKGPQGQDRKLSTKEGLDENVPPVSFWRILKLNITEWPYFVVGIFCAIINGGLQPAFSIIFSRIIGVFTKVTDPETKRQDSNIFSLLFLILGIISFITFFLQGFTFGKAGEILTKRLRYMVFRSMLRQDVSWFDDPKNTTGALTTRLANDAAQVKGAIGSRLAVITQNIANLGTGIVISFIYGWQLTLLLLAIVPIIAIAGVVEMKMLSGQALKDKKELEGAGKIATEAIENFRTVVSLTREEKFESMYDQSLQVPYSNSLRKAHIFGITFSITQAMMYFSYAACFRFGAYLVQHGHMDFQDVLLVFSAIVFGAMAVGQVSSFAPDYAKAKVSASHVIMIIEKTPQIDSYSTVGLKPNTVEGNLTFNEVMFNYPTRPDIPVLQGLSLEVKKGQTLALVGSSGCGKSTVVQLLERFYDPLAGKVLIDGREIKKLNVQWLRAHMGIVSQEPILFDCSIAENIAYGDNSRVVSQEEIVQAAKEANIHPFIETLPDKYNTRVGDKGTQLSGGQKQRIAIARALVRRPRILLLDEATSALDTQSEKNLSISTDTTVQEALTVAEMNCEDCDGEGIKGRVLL
Description: The porcine brain microvessel isolation and culture protocol was based on previously published papers, [29]with modifications. Briefly, brains from six pigs (Cheale Meats Ltd., Brentwood, UK) were washed. The grey matter was homogenised, filtered, digested, centrifuged and microvessels cryopreserved.
The PBECs were seeded onto rat-tail collagen/fibronectin-coated transwell filter inserts at a density of 1×10^5cells/cm^2. […] This was conducted to elevate intracellular cAMP and thereby encourage differentiation of BBB phenotype including tight junctions. Cell monolayers were used when TEER exceeded 340 Ω.cm^2. For permeability assays, DMEM without phenol red with added HEPES (25mM) and 0.1% BSA was pH adjusted to 7.4 and used as transport medium. […] Samples were taken from both compartments.Apparent permeability (Papp) in cm/s for the compounds studied was calculated as previously described.

[10] = biological target: T1, P-gp; settings: for Effect of tariquidar on accumulation in hCMEC/D3 cells: 5µM drug, 30 minutes, 300nM tariquidar; for Interaction with P-gp observed: Human brain endothelial cell line (hCMEC/D3)
Description: Cells were equilibrated in transport buffer (HBSS containing 25mM HEPES and 0.1% (w/v) bovine serum albumin at pH 7.4) at 37°C with accumulation assays performed as previously described [24], [25].

[11] = biological target: T2, P-gp; parameters: method as in PMID 12954800; settings: porcine brain endothelial cells, cited from earlier work
[12] = system: mouse P-gp; settings: Transfected mouse P-gp cell line; bi-directional transwell method; cited from earlier work
[13] = system: human P-gp; settings: Transfected human P-gp cell lines; bi-directional transwell; cited from earlier work
[14] = system: P-gp; settings: Microdialysis/brain access in rodent models; cited from earlier work
[15] = system: P-gp; settings: cited from earlier work
[16] = system: P-gp; settings: cited from earlier work; remark: listed apart in the source
[17] = biological target: T1, P-gp; parameters: induced multi-drug resistance through over-expression of P-gp; endogenous in cells; host or cells: CEM (low P-gp) and VBL100 (vinblastine-selected, high P-gp) cells; method as in PMID 11318771, PMID 16882549; settings: Caco-2 bi-directional transwell; cited from earlier work
[18] = biological target: T1, P-gp; parameters: induced multi-drug resistance through over-expression of P-gp; endogenous in cells; host or cells: CEM (low P-gp) and VBL100 (vinblastine-selected, high P-gp) cells; method as in PMID 12954800; settings: LLC-PK1-P-gp cells, 100µM drug; cited from earlier work
[19] = biological target: T1, P-gp; parameters: induced multi-drug resistance through over-expression of P-gp; endogenous in cells; host or cells: CEM (low P-gp) and VBL100 (vinblastine-selected, high P-gp) cells; method as in PMID 17326793; settings: Primary human brain endothelial cells; cited from earlier work
[20] = biological target: T1, P-gp; parameters: induced multi-drug resistance through over-expression of P-gp; endogenous in cells; host or cells: CEM (low P-gp) and VBL100 (vinblastine-selected, high P-gp) cells; method as in PMID 17326793; settings: Primary epileptic derived human brain endothelial cells; cited from earlier work

Structure (SMILES): Cc1ccc(NC(=O)c2ccc(CN3CCN(C)CC3)cc2)cc1Nc1nccc(-c2cccnc2)n1 [imatinib]
- Identified as P-gp substrate with CEM and VBL100 cells [1]: P-gp substrates

Structure (SMILES): Nc1nnc(-c2cccc(Cl)c2Cl)c(N)n1 [lamotrigine]
- Brain accumulation affected by rodent P-gp [2]: not
- Inhibition by tariquidar of P-gp mediated transport ([3]; LLC-PK1-P-gp, concentration equilibrium approach, ref 18 (Luna-Tortos et al)): 60%

- Accumulation in VBL100 cells compared with CEM cells [4]: less accumulation
- Effect of tariquidar on accumulation in VBL100 cells [4]: tariquidar restored accumulation
- Transport into the apical compartment, LLC-PK1-P-gp vs parental LLC-PK1 cells [7]: significantly higher transport
- P-gp substrate status in oocyte expression system ([8]; imatinib data not shown): confirmed to be substrates
- Efflux from P-gp injected oocytes vs water-injected oocytes [8]: higher efflux
- Effect of PSC-833 on efflux from P-gp injected oocytes ([8]; intra-oocyte 1µM digoxin, 40µM PSC833): reduced
Structure (SMILES): C[C@H]1O[C@@H](O[C@H]2[C@@H](O)C[C@H](O[C@H]3[C@@H](O)C[C@H](O[C@H]4CC[C@@]5(C)[C@H](CC[C@@H]6[C@@H]5C[C@@H](O)[C@]5(C)[C@@H](C7=CC(=O)OC7)CC[C@]65O)C4)O[C@@H]3C)O[C@@H]2C)C[C@H](O)[C@@H]1O [digoxin]
- Polarised transport in Caco-2 concentration equilibrium assay [5]: transported into the apical compartment and this was inhibited by tariquidar
- Transport into the apical compartment, MDCKII-P-gp vs parental MDCKII cells [6]: significant increase in apical concentration

Structure (SMILES): NC(=O)N1c2ccccc2C2OC2c2ccccc21 (centres unmarked) [carbamazepine-10,11-epoxide]
- Transport by P-gp, concentration equilibrium approach [3]: does transport

- Effect of verapamil or tariquidar treatment on apical to basolateral Papp [9]: decrease
- Interaction with P-gp observed [9]: No
- Effect of tariquidar on accumulation in hCMEC/D3 cells [10]: No effect of tariquidar
- Interaction with P-gp observed [10]: No
- Accumulation in VBL100 cells compared with CEM cells [4]: significantly higher accumulation
- Effect of tariquidar on accumulation in VBL100 cells [4]: not inhibited by tariquidar
- Interaction with P-gp observed [4]: No
- Polarised transport in Caco-2 concentration equilibrium assay [5]: No polarised transport
- Interaction with P-gp observed [5]: No
- Transport into the apical compartment, MDCKII-P-gp vs parental MDCKII cells [6]: no difference
- Interaction with P-gp observed [6]: No
- Transport into the apical compartment, LLC-PK1-P-gp vs parental LLC-PK1 cells [7]: no transport
- Interaction with P-gp observed [7]: No
- Accumulation in oocytes expressing human P-gp vs water-injected oocytes [8]: No differences
- Interaction with P-gp observed [8]: No
Structure (SMILES): NC(=O)N1c2ccccc2C=Cc2ccccc21 [carbamazepine]
- Inhibition of uptake of calcein AM ([11]; 10µM): not at 10µM
- Inhibition of uptake of calcein AM ([11]; 100µM): able to inhibit
- Substrate of P-gp (published evidence) [2]: No
- Brain accumulation affected by rodent P-gp [2]: not
- Substrate of P-gp (published evidence) [12]: No
- Substrate of P-gp (published evidence) [13]: No
- Substrate of P-gp (published evidence) [3]: No
- Transport by P-gp, concentration equilibrium approach [3]: does not transport
- Substrate of P-gp (published evidence) [14]: Yes
- Stimulation of P-gp ATPase activity (published evidence) [15]: No
- Calcein-AM P-gp inhibition assay (published evidence) [16]: No
- Substrate of P-gp (published evidence) [17]: No
- Inhibition of the uptake of the P-gp substrate [18]: no inhibition

Structure (SMILES): CC1(C)CCC(c2ccc(Cl)cc2)=C(CN2CCN(c3ccc(C(=O)NS(=O)(=O)c4ccc(N[C@H](CCN5CCOCC5)CSc5ccccc5)c(S(=O)(=O)C(F)(F)F)c4)cc3)CC2)C1 [ABT-263]
- Identified as P-gp substrate with CEM and VBL100 cells [1]: P-gp substrates

- Effect of verapamil or tariquidar treatment on apical to basolateral Papp [9]: not affected
- Interaction with P-gp observed [9]: No
- Effect of tariquidar on accumulation in hCMEC/D3 cells [10]: No effect of tariquidar
- Interaction with P-gp observed [10]: No
- Interaction with P-gp observed [4]: No
- Polarised transport in Caco-2 concentration equilibrium assay [5]: No polarised transport
- Interaction with P-gp observed [5]: No
- Interaction with P-gp observed [6]: Yes –“weak”
- Interaction with P-gp observed [7]: Yes –“weak”
- Accumulation in oocytes expressing human P-gp vs water-injected oocytes [8]: No differences
- Interaction with P-gp observed [8]: No
- Efflux from P-gp injected oocytes vs water-injected oocytes [8]: No difference
Structure (SMILES): O=C1NC(=O)C(c2ccccc2)(c2ccccc2)N1 [phenytoin]
- Substrate of P-gp (published evidence) [2]: Yes/No
- Brain accumulation affected by rodent P-gp [2]: affects brain accumulation
- Substrate of P-gp (published evidence) [12]: Yes/No
- Substrate of P-gp (published evidence) [13]: No
- Substrate of P-gp (published evidence) [3]: Yes
- Substrate of P-gp (published evidence) [14]: Yes
- Stimulation of P-gp ATPase activity (published evidence) [15]: No
- Calcein-AM P-gp inhibition assay (published evidence) [16]: No
- Accumulation in VBL100 cells compared with CEM cells [4]: No significant decrease in accumulation or tariquidar inhibition
- Transport into the apical compartment, MDCKII-P-gp vs parental MDCKII cells [6]: more phenytoin was transported into the apical compartment
- Transport into the apical compartment, LLC-PK1-P-gp vs parental LLC-PK1 cells [7]: higher in LLC-PK1-P-gp cells and inhibitable by tariquidar
- Substrate of P-gp (published evidence) [17]: No
- Substrate of P-gp (published evidence) [19]: No
- Substrate of P-gp (published evidence) [20]: Yes
- Inhibition of the uptake of the P-gp substrate [18]: no inhibition
